We go through 17 compounds from patent US12157746B2, “Tetrahydro-1H-pyrazino[2,1-a]isoindolylquinoline compounds for the treatment of autoimmune disease” (F. HOFFMANN-LA ROCHE AG, priority 2018, dated 2024).

The structures appear in SMILES notation.

Series [1] in a line: Human microsomal stability assay. The series is classed as in vitro ADME. As to conditions: human liver microsomes 0.5 mg/mL, 37° C., pH 7.4, NADPH regenerating system, 0-30 minutes. The protocol: Human Microsomal Stability Assay
Human liver microsomes (Cat. NO.: 452117, Corning, USA) were preincubated with test compound for 10 minutes at 37° C. in 100 mM potassium phosphate buffer, pH 7.4. The reactions were initiated by adding NADPH regenerating system. The final incubation mixtures contained […] test compound, 0.5 mg/mL liver microsomal protein, 1 mM MgCl2, 1 mM NADP, 1 unit/mL isocitric dehydrogenase and 6 mM isocitric acid in 100 mM potassium phosphate buffer, pH 7.4. After incubation times of 0, 3, 6, 9, 15 and 30 minutes at 37° C., 300 μL of cold ACN (including internal standard) was added to 100 μL incubation mixture to terminate the reaction. Following precipitation and centrifugation, 100 μL supernatant will be taken out and added 300 uL water. The amount of compound remaining in the samples was determined by LC-MS/MS. Controls of no NADPH regenerating system at zero and 30 minutes were also prepared and analyzed. The results were categorized as: low (<7.0 mLJmin/kg), medium (7.0-16.2 mL/min/kg) and high (16.2-23.2 mLJmin/kg).
For orientation: Microsomes from liver hold many membrane-bound enzymes, among them those of drug oxidation.

Series [2] has as its target T1, human TLR8 (Homo sapiens, UniProt Q9NR97).
T1 sequence (Q9NR97 27-1041): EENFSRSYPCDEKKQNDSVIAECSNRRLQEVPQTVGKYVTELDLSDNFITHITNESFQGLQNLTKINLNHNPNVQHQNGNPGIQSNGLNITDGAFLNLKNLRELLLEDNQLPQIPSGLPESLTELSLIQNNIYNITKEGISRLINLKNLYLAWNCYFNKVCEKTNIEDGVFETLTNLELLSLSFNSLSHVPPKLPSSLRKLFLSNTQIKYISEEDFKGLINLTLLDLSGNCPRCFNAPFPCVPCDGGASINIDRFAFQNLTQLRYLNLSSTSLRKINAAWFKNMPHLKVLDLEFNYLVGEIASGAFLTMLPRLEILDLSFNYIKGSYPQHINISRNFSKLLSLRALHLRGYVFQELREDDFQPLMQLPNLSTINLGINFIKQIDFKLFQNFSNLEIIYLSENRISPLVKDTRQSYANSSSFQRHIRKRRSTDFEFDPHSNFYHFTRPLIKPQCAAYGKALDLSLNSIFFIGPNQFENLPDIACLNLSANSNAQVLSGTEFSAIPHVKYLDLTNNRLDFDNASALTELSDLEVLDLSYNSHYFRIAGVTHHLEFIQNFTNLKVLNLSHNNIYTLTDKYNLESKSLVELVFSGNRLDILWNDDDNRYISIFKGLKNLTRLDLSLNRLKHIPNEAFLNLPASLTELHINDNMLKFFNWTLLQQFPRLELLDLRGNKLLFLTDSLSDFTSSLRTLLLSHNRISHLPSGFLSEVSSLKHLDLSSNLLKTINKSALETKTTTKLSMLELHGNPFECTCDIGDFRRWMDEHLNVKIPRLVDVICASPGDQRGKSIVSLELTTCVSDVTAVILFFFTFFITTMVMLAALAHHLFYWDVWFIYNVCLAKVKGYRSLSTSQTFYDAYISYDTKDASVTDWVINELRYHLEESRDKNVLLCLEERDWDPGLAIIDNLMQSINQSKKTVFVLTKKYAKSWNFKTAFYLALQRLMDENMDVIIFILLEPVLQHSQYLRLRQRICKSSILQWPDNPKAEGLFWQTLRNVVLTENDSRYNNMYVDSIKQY
The series can be described thus: HEK293-Blue-hTLR-8 cells assay. It is filed as cell-based. As to conditions: HEK293-Blue-hTLR8 cells, R848 stimulation, 20 hrs, SEAP reporter; read-out: HEK/hTLR8 IC50. The gist of the method:
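Antagonism read out in HEK293-Blue-hTLR8 cells carrying an NF-κB/AP-1-driven SEAP reporter, stimulated with R848 (10 μL of 60 uM stock added) alongside serially diluted compound (1% DMSO), 20 h at 37° C. Supernatant SEAP measured with QUANTI-Blue after 2 h at 37° C, absorbance at 620-655 nm.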

As to `C[C@@H]1CN(c2ccc(C#N)c3ncccc23)C[C@@H]2c3ccc(N4C[C@@H](F)[C@@H](N)C4)cc3CN12` [Example 46, 5-[(4R,10bS)-8-[(3S,4R)-3-amino-4-fluoro-pyrrolidin-1-yl]-4-methyl-3,4,6,10b-tetrahydro-1H-pyrazino[2,1-a]isoindol-2-yl]quinoline-8-carbonitrile], the “CL (h)” value in series [1] came to 8.8 mL/min/kg. The IC50 in series [2] came out at 0.4 nM.
On the same counts, the results for `C[C@@H]1CN(c2ccc(C#N)c3ncsc23)C[C@@H]2c3ccc(N4CCNCC4)cc3CN12` [Example 6, 7-[(4R,10bS)-4-methyl-8-piperazin-1-yl-3,4,6,10b-tetrahydro-1H-pyrazino[2,1-a]isoindol-2-yl]-1,3-benzothiazole-4-carbonitrile] are 6.6 mL/min/kg and below 3.2 nM.
The corresponding values for `C[C@@H]1CN(c2ccc(C#N)c3ncccc23)C[C@@H]2c3ccc(N4C[C@H](N)[C@@](C)(O)C4)cc3CN12` [Example 45B, 5-[(4R,10bS)-8-[(3S,4S)-4-amino-3-hydroxy-3-methyl-pyrrolidin-1-yl]-4-methyl-3,4,6,10b-tetrahydro-1H-pyrazino[2,1-a]isoindol-2-yl]quinoline-8-carbonitrile] are 6.2 mL/min/kg and 1.2 nM.
On the same counts, the results for `C[C@@H]1CN(c2ccc(C#N)c3ncccc23)C[C@@H]2c3ccc(N4CCNC[C@H]4CO)cc3CN12` [Example 11, 5-[(4R,10S)-8-[(2S)-2-(hydroxymethyl)piperazin-1-yl]-4-methyl-3,4,6,10b-tetrahydro-1H-pyrazino[2,1-a]isoindol-2-yl]quinoline-8-carbonitrile] are 6.2 mL/min/kg and below 3.2 nM.
With `C[C@@H]1CN(c2ccc(C#N)c3ncccc23)C[C@@H]2c3ccc(N4CCOCC(N)C4)cc3CN12` (stereo partly drawn) [Example 54, 5-[(4R,10bS)-8-(6-amino-1,4-oxazepan-4-yl)-4-methyl-3,4,6,10b-tetrahydro-1H-pyrazino[2,1-a]isoindol-2-yl]quinoline-8-carbonitrile], the “CL (h)” value in series [1] was 8.9 mL/min/kg. Moreover, the IC50 in series [2] was below 3.2 nM.
The corresponding values for `C[C@@H]1CN(c2ccc(C#N)c3ncccc23)C[C@@H]2c3ccc(OCCN(C)C)cc3CN12` [Example 25, 5-[(4R,10bS)-8-[2-(dimethylamino)ethoxy]-4-methyl-3,4,6,10b-tetrahydro-1H-pyrazino[2,1-a]isoindol-2-yl]quinoline-8-carbonitrile] are 8.0 mL/min/kg and below 3.2 nM.
On the same counts, the results for `C[C@@H]1CN(c2ccc(C#N)c3ncccc23)C[C@@H]2c3ccc(N4C[C@H](N)[C@@H](O)C4)cc3CN12` [Example 40A, 5-[(4R,10bS)-8-[(3S,4S)-3-amino-4-hydroxy-pyrrolidin-1-yl]-4-methyl-3,4,6,10b-tetrahydro-1H-pyrazino[2,1-a]isoindol-2-yl]quinoline-8-carbonitrile] are 7.0 mL/min/kg and 1.4 nM.
The corresponding values for `C[C@@H]1CN(c2ccc(C#N)c3ncccc23)C[C@@H]2c3ccc(N4CC5CNCC(C4)O5)cc3CN12` [Example 14, 5-[(4R,10bS)-4-methyl-8-(9-oxa-3,7-diazabicyclo[3.3.1]nonan-3-yl)-3,4,6,10b-tetrahydro-1H-pyrazino[2,1-a]isoindol-2-yl]quinoline-8-carbonitrile] are 6.2 mL/min/kg and below 3.2 nM.
As for `C[C@@H]1CN(c2ccc(C#N)c3ncccc23)C[C@@H]2c3ccc(N4C[C@@H](N)[C@](C)(O)C4)cc3CN12` [Example 45A, 5-[(4R,10bS)-8-[(3R,4R)-4-amino-3-hydroxy-3-methyl-pyrrolidin-1-yl]-4-methyl-3,4,6,10b-tetrahydro-1H-pyrazino[2,1-a]isoindol-2-yl]quinoline-8-carbonitrile], in series [1], the “CL (h)” value turned out to be 6.2 mL/min/kg. Further, the IC50 in series [2] turned out to be 1.5 nM.
The corresponding values for `C[C@@H]1CN(c2ccc(C#N)c3ncccc23)C[C@@H]2c3ccc(N4C[C@@H](N)[C@H](F)C4)cc3CN12` [Example 48, 5-[(4R,10bS)-8-[(3R,4R)-3-amino-4-fluoro-pyrrolidin-1-yl]-4-methyl-3,4,6,10b-tetrahydro-1H-pyrazino[2,1-a]isoindol-2-yl]quinoline-8-carbonitrile] are 8.9 mL/min/kg and 0.7 nM.
For the compound `N#Cc1ccc(N2CCN3Cc4cc(N5CCNCC5)ccc4C3C2)c2scnc12` (stereo not shown) [Example 4, 7-(8-piperazin-1-yl-3,4,6,10b-tetrahydro-1H-pyrazino[2,1-a]isoindol-2-yl)-1,3-benzothiazole-4-carbonitrile], the “CL (h)” value in series [1] was 6.2 mL/min/kg. The IC50 in series [2] was below 3.2 nM.
The corresponding values for `CO[C@H]1CN(c2ccc3c(c2)CN2C3CN(c3ccc(C#N)c4ncccc34)C[C@H]2C)C[C@@H]1N` (single isomer, unassigned) [Example 16A] are 8.5 mL/min/kg and below 3.2 nM.
The corresponding values for `C[C@@H]1CN(c2ccc(C#N)c3ncccc23)C[C@@H]2c3ccc(N4CCC(N)(CO)C4)cc3CN12` (stereo partly drawn) [Example 19, 5-[(4R,10bS)-8-[3-amino-3-(hydroxymethyl)pyrrolidin-1-yl]-4-methyl-3,4,6,10b-tetrahydro-1H-pyrazino[2,1-a]isoindol-2-yl]quinoline-8-carbonitrile] are 7.7 mL/min/kg and below 3.2 nM.
On the same counts, the results for `C[C@@H]1CN(c2ccc(C#N)c3nccnc23)C[C@@H]2c3ccc(N4CCNCC4)cc3CN12` [Example 7, 8-[(4R,10bS)-4-methyl-8-piperazin-1-yl-3,4,6,10b-tetrahydro-1H-pyrazino[2,1-a]isoindol-2-yl]quinoxaline-5-carbonitrile] are 7.8 mL/min/kg and below 3.2 nM.
For the compound `CO[C@@H]1CN(c2ccc3c(c2)CN2C3CN(c3ccc(C#N)c4ncccc34)C[C@H]2C)C[C@@H]1N` (relative stereo) [Example 17, 5-[(4R,10bS)-8-[cis-3-amino-4-methoxy-pyrrolidin-1-yl]-4-methyl-3,4,6,10b-tetrahydro-1H-pyrazino[2,1-a]isoindol-2-yl]quinoline-8-carbonitrile], the “CL (h)” value in series [1] is recorded as 6.2 mL/min/kg. Besides, the IC50 in series [2] is below 3.2 nM.
The corresponding values for `C[C@@H]1CN(c2ccc(C#N)c3ncccc23)C[C@@H]2c3ccc(N4C[C@@H](N)[C@](C)(O)C4)cc3CN12` [Example 45, 5-[(4R,10bS)-4-methyl-8-[trans-(3R,4R)-4-amino-3-hydroxy-3-methyl-pyrrolidin-1-yl]-3,4,6,10b-tetrahydro-1H-pyrazino[2,1-a]isoindol-2-yl]quinoline-8-carbonitrile] are 6.2 mL/min/kg and below 3.2 nM.
The corresponding values for `[2H]c1ccc2c(N3C[C@@H](C)N4Cc5cc(N6CC(C)(N)C6)ccc5[C@H]4C3)ccc(C#N)c2n1` [Example 92, 5-[(4R,10bS)-8-(3-amino-3-methyl-azetidin-1-yl)-4-methyl-3,4,6,10b-tetrahydro-1H-pyrazino[2,1-a]isoindol-2-yl]-2-deuterio-quinoline-8-carbonitrile] are 6.4 mL/min/kg and below 0.3 nM.
